The values below come from patent US6828475B1, “Nucleic acid sequences encoding a plant cytoplasmic protein involved in fatty acyl-CoA metabolism” (Calgene LLC, priority 1994, dated 2004).

Data set [1] relates to jojoba wax synthase. Description: Wax synthase assay in jojoba microsomal membrane fraction. It is filed as biochemical. Conditions: for Wax synthase Activity, Acyl Group: 80 μM acyl-CoA substrate, 100 μM radiolabeled oleyl alcohol; for Wax synthase Activity, Acyl Group / Wax synthase Activity, Alcohol Group: microsomal membrane fraction; for Wax synthase Activity, Alcohol Group: 100 μM alcohol substrate, 40 μM radiolabeled eicosenoyl-CoA. As to the method: Wax synthase activity in a microsomal membrane preparation is measured by incubation of 40 μM [1-^14C] acyl-CoA (usually palmitoyl-CoA, sp. act. 5.1-5.6 mCi/mmol) and 200 μM oleyl alcohol with the sample to be assayed in a total volume of 0.25 ml. The incubation mixture also contains 20% w/v glycerol, 1 mM DTT, 0.5M NaCl and is buffered with 25 mM HEPES (4-[2-hydroxyethyl]-1-piperazineethane-sulfonic acid). HEPES, here and as referred to hereafter is added from a 1M stock solution adjusted to pH 7.5.
A substrate mixture is prepared in a glass vial, with oleyl alcohol being added immediately before use, and is added to samples. Incubation is carried out at 30° C. for one hour. The assay is terminated by placing the assay tube on ice and immediately adding 0.25 ml isopropanol:acetic acid (4:1 v/v). Unlabeled wax esters (0.1 mg) and oleyl alcohol (0.1 mg) are added as carriers. The [^14C] lipids are extracted by the scaled-down protocol of Hara and Radin (Anal. Biochem. (1978) 90:420). Four ml of hexane/isopropanol (3:2, v/v) is added to the terminated assay. The sample is vortexed, 2 ml of aqueous sodium sulphate solution (6.6% w/v) is added, and the sample is again vortexed.
1. Extensive Analysis: Following addition of the sodium sulphate and vortexing the sample, the upper organic phase is removed and the lower aqueous phase is washed with 4 ml hexane/isopropanol (7:2 v/v). The organic phases are pooled and evaporated to dryness under nitrogen. The lipid residue is resuspended in a small volume of hexane, and an aliquot is assayed for radioactivity by liquid scintillation counting. The remainder of the sample can be used for TLC analysis of the labeled classes and thereby give a measure of total wax produced.
For lipid class analysis the sample is applied to a silica TLC plate, and the plate is developed in hexane/diethyl ether/acetic acid (80:20:1 v/v/v). The distribution of radioactivity between the lipid classes, largely wax esters, free fatty acids, fatty alcohols, and polar lipids at the origin, is measured using an AMBIS radioanalytic imaging system (AMBIS Systems Inc., San Diego, Calif.). If necessary the individual lipid classes can be recovered from the TLC plate for further analysis. Reversed-phase TLC systems using C18 plates developed in methanol have also been used for the analysis.
2. Quick Analysis: Following addition of the sodium sulfate and vortexing the sample, a known percentage of the organic phase is removed and counted via liquid scintillation counting. This calculation is used to estimate the total counts in the organic phase. Another portion of the organic phase is then removed, dryed down under nitrogen, redissolved in hexane and spotted on TLC plates and developed and scanned as described for the detailed assay. In this manner the percentage of the total counts which are incorporated into wax is determined.
Acyl-CoA and alcohol substrates having varying carbon chain lengths and degrees of unsaturation were added to a microsomal membrane fraction having wax synthase activity to determine the range of substrates recognized by the jojoba wax synthase. Wax synthase activity was measured as described in Example 1, with acyl specificity measured using 80 μM of acyl-CoA substrate and 100 μM of radiolabeled oleyl alcohol. Alcohol specificity was measured using 100 μM of alcohol substrate and 40 μM of radiolabeled eicosenoyl-CoA.

Data set [2] has as its system NADH-dependent fatty acyl-CoA reductase. Kind of data set: NADH-dependent fatty acyl-CoA reductase assay, solubilized microsomal membranes. It is filed as biochemical, Euglena gracilis. Conditions: in the assay at levels above the CMC (approximately 0.5% (w/v)). The procedure:
For example, an NADH-dependent fatty acyl-CoA reductase activity can be obtained from microsomal membranes isolated from Euglena gracilis. Methods which may be used to isolate microsomal membranes are described, for example in the published PCT patent application WO 92/14816 (application number PCT/US92/03164, filed Feb. 21, 1992). The reductase activity is solubilized from these membranes using the same approaches as used for jojoba reductase and wax synthase. Membranes are incubated on ice for one hour with various amounts of the detergent, CHAPS, in a buffering solution consisting of 25 mM BisTris, pH 6.9, 250 mM NaCl, 10% glycerol and 1 mM EDTA. The sample is then centrifuged at 200,000×g for one hour, and the supernatant and pellet fractions assayed for NADH-dependent reductase activity using radiolabeled palmitoyl-CoA and NADH as substrates. A convenient assay for reductase activity is described in PCT patent application WO 92/14816. Incubation of the membranes with 0.3, 0.5 or 0.7 % (w/v) CHAPS results in retention of reductase activity in the supernatant fractions, indicative of solubilization of the enzyme. If CHAPS is omitted during the incubation and centrifugation, all of the reductase activity is found in the pellet fraction. All of the samples are diluted ten-fold in this same buffer solution prior to assaying in order to dilute the CHAPS present during the incubation.

The target of data set [3] is palmitoyl-ACP.

With `CCCCCCCCCCCC(=O)SCCNC(=O)CCNC(=O)[C@H](O)C(C)(C)COP(=O)(O)OP(=O)(O)OC[C@H]1O[C@@H](n2cnc3c(N)ncnc32)[C@H](O)[C@@H]1OP(=O)(O)O` [12:0], in data set [1], the “Wax synthase Activity, Acyl Group” value was 12 pmol/min and the “Wax synthase Activity, Alcohol Group” value was found to be 100 pmol/min. In the same order, the values of `CCCCCCCCCCCCCC(=O)SCCNC(=O)CCNC(=O)[C@H](O)C(C)(C)COP(=O)(O)OP(=O)(O)OC[C@H]1O[C@@H](n2cnc3c(N)ncnc32)[C@H](O)[C@@H]1OP(=O)(O)O` [14:0] are 95 pmol/min and 145 pmol/min. The corresponding values for `CCCCCCCCCCCCCCCC(=O)SCCNC(=O)CCNC(=O)[C@H](O)C(C)(C)COP(=O)(O)OP(=O)(O)OC[C@H]1O[C@@H](n2cnc3c(N)ncnc32)[C@H](O)[C@@H]1OP(=O)(O)O` [16:0] are 81 pmol/min and 107 pmol/min. The corresponding values for `CCCCCCCCCCCCCCCCCC(=O)SCCNC(=O)CCNC(=O)[C@H](O)C(C)(C)COP(=O)(O)OP(=O)(O)OC[C@H]1O[C@@H](n2cnc3c(N)ncnc32)[C@H](O)[C@@H]1OP(=O)(O)O` [18:0] are 51 pmol/min and 56 pmol/min.

As for `CCCCCCCCCCCCCCCCCCCC(=O)SCCNC(=O)CCNC(=O)[C@H](O)C(C)(C)COP(=O)(O)OP(=O)(O)OC[C@H]1O[C@@H](n2cnc3c(N)ncnc32)[C@H](O)[C@@H]1OP(=O)(O)O` [20:0], in data set [1], the “Wax synthase Activity, Acyl Group” value came to 49 pmol/min and the “Wax synthase Activity, Alcohol Group” value was determined as 21 pmol/min.

Turning to `CCCCCCCCCCCCCCCCCCCCCC(=O)SCCNC(=O)CCNC(=O)[C@H](O)C(C)(C)COP(=O)(O)OP(=O)(O)OC[C@H]1O[C@@H](n2cnc3c(N)ncnc32)[C@H](O)[C@@H]1OP(=O)(O)O` [22:0], in data set [1], the “Wax synthase Activity, Acyl Group” value was determined as 46 pmol/min and the “Wax synthase Activity, Alcohol Group” value is 17 pmol/min. With `C[C@H](CCC(=O)NCCC[N+](C)(C)CCCS(=O)(=O)[O-])[C@H]1CC[C@H]2[C@@H]3[C@H](O)C[C@@H]4C[C@H](O)CC[C@]4(C)[C@H]3C[C@H](O)[C@]12C` [CHAPS, 3-[(3-cholamidopropyl)-dimethyl-ammonio]-1-propanesulfonate], the “effect on reductase enzyme activity” value in data set [2] is “inhibition of enzyme activity”. For the molecule `NC(=O)CI` [Iodoacetamide], the “effect of sulphydryl agents on wax synthase activity (inhibition)” value (“effect of sulphydryl agents … (inhibition)” for short) in data set [1] is listed as “much less effective”. Regarding `CCCCCCCCCCCCCCCC(=O)SCCNC(C)=O` [N-acetyl-S-palmitoyl cysteamine], the “wax synthase activity towards acyl-thioester substrates” value in data set [1] (as acyl substrate) was “no activity was detectable”. Take `CCNC(=O)/C=C\C(N)=O` [N-ethylmaleamide]: the “effect of sulphydryl agents … (inhibition)” value in data set [1] is recorded as “much less effective”. With `CCCCCCCCCCCCCCCC(=O)SCCNC(=O)CCNC(=O)[C@H](O)C(C)(C)COP(=O)(O)OP(=O)(O)OC[C@H]1O[C@@H](n2cnc3c(N)ncnc32)[C@H](O)[C@@H]1OP(=O)(O)O` [palmitoyl-CoA], in data set [1] (as acyl substrate), the “wax synthase activity towards acyl-thioester substrates” value is reported as “greatest activity”.

In the case of `O=C(O)c1cc[c]([Hg][OH])cc1` [para-hydroxymercuribenzoate], the “effect of sulphydryl agents … (inhibition)” value in data set [1] is listed as “Inhibition”. In addition, the “reversal of inhibition of wax synthase activity” value in data set [1] (subsequent addition of DTT) is given as “could be reversed”. For the molecule “jojoba wax synthase (microsomal membrane fraction having wax synthase activity) (pool or library)”, the wax synthase activity (% of that with acyl-CoA) in data set [3] came to 10.

For palmitoyl-ACP, in data set [1] (as acyl substrate), the “wax synthase activity relative to acyl-CoA” value was ~10 % of that with acyl-CoA.
